Laboratory results published in patent US8758802B2, “Methods of inhibiting cataracts and presbyopia” (University of Massachusetts, priority 2009, dated 2014).
“Also recorded” adds a separate entry of the source.

Tested on: βL-crystallin
Assay: Dynamic light scattering of βL-crystallin solutions with added agents (aggregate size, hydrodynamic radius)
Assay type: biochemical, bovine
Details: for Effect on βL-crystallin aggregate size / de-clumping: SDS 0.1 mg/mL (below CMC), 0.2 mg/mL βL-crystallin in water, sulfate
Description: βL-crystallin (C5163 Sigma-Aldrich) and α-crystallin (C4163 Sigma-Aldrich) from a bovine eye lens were stored in a biological freezer. The four stock solutions prepared for these experiments were 2 mg/mL βL-crystallin in water, 2 mg/mL βL-crystallin in PBS, 2 mg/mL α-crystallin in water, and 0.15M NaCl in water. All water used in these experiments was filtered and deionized. A stock solution of 2 mg/mL βL-crystallin in water was prepared by mixing 10 mg of βL-crystallin with 5 mL water in a decontaminated 20 mL scintillation vial. A similar procedure was followed to prepare 2 mg/mL α-crystallin in water and 2 mg/mL βL-crystallin in PBS.
A dilution of these stock solutions was used to create 2 mL samples of 0.2 mg/mL βL-crystallin in water, 0.2 mg/mL α-crystallin in water, 0.2 mg/mL βL-crystallin, 0.15M NaCl in water, 0.2 mg/mL βL-crystallin, 0.6 mg/mL α-crystallin in water, and 0.2 mg/mL βL-crystallin in PBS.
An ALV instrument with an Ar laser (λ=514.5 nm) was used to collect DLS data from 35°-65° in 5° increments and from 70°-90° in 10° increments. An ALV5000 correlator was used to analyze the data. Glass DLS tubes (4 mL) were sonicated in an extremely dilute solution of Micro-90 for 1 hour and then rinsed with filtered deionized water eight times followed by acetone eight times. The concentration of crystallins in the lens is typically very high. However, dilute solutions of the crystallins are required for DLS characterization, as set forth by limitations imposed by the Zimm regime.
The hydrodynamic radius, Rh, can be determined using the Stokes-Einstein equation,
As mentioned earlier, α-crystallin acts as a chaperone protein in the lens as it either diminishes or inhibits aggregation. In order to determine the impact of α-crystallin and its chaperone abilities on βL-crystallin, a solution of 0.2 mg/mL βL-crystallin, 0.6 mg/mL α-crystallin in water at 23° C. was prepared for DLS. […] The addition of the chaperone was thereby seen to remove the aggregate.
In order to determine if the aggregation of the crystallins is electrostatic in nature, dynamic light scattering was accomplished on 0.2 mg/mL βL-crystallin in a 0.15M NaCl water solution, (FIG. 8).
The effect of SDS, sodium dodecyl sulfate (purchased from Sigma Aldrich) a […] surfactant on βL-crystallin deaggregation was studied as in Example 4. The CMC for SDS is 2.36 mg/ml, so the SDS concentration was maintained below that value.

[1] = 0.2 mg/mL βL-crystallin, 0.15M NaCl in water

Compound	Rh of βL-crystallin aggregate (slow mode) after addition of the salt (0.2 mg/mL βL-crystallin in 0.15M NaCl water solution, without salt 230 nm) [nm]	Effect of salt on fast mode (unaggregated βL-crystallin) [1]	Reduction in aggregate Rh upon addition of NaCl [1]	Effect on βL-crystallin aggregate size (about 0.15 M NaCl)	Effect on βL-crystallin aggregate size / de-clumping (listed as sodium dodecyl sulfate)	Effect on βL-crystallin aggregate size / de-clumping
[Cl-].[Na+] [NaCl]	120	not significantly affected	two-fold reduction	decreases βL-crystallin aggregate size		
CCCCCCCCCCCCOS(=O)(=O)[O-].[Na+] [SDS, sodium dodecyl sulfate, reference compound]					no effect; also recorded: does not reduce βL-crystallin aggregate sizes	did not stimulate de-clumping
